Assays:
barnyard grass [1] = test: Herbicidal test for paddy field; assay type: in vivo, Eschinochloa crusgalli; conditions: 500 g/ha, dropwise addition to paddy water at 1.5 leaf stage of barnyard grass; glass house 25° C., 3 weeks; rank 0-5 vs non-treated district
Experimental: (§1) Wagner pots, each having an area of 1/5000 are, were packed with Ube soil (alluvial soil) and planted with seeds or tubers of young rice plant, barnyard grass, bulrush, Cyperus serotinus Rottb., arrowhead and monochoria. Then, the pots were filled with water to a depth of 3 cm.
(§2) Each wettable powder of the desired Compounds (I) shown in Tables 1 to 21, 24, 25, 28 and 29 prepared in accordance with Example 2 was diluted with water containing a surfactant (0.05%) and subjected to dropwise addition treatment by using pipet so that an effective concentration of the compound (I) in each herbicide became 500 g/ha at 1.5 leaf stage of barnyard grass.
(§3) These plants were controlled in a glass house at an average temperature of 25° C. for 3 weeks, and then herbicidal effects thereof were investigated.
(§4) The herbicidal effects are evaluated according to the following 6 ranks as compared with non-treated district. (0: normal development, 1: Less damaged, 2: Slightly damaged, 3: Moderately damaged, 4: Severely damaged, 5: All killed). Incidentally, “-” in the column means not investigated.

monochoria = test: Herbicidal test for paddy field; assay type: in vivo, Monochoria vaginalis; conditions: 500 g/ha, dropwise addition to paddy water at 1.5 leaf stage of barnyard grass; glass house 25° C., 3 weeks; rank 0-5 vs non-treated district
Experimental: as §1, §2, §3, §4

corn [2] = test: Soil treatment test for upland field; assay type: in vivo; parameters: key: 0 = normal development, 5 = all killed; conditions: 500 g/ha, 3 weeks, glass house 25° C.
Procedure, shortened: (§5)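 Pre-emergence soil spray, 500 g/ha, WP formulation in water + 0.05% surfactant; alluvial soil; glasshouse, avg 25° C, 3 wk. Score 0 (normal) to 5 (all killed) vs untreated.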

soybean [3] = test: Soil treatment test for upland field; assay type: in vivo; parameters: key: 0 = normal development, 5 = all killed; conditions: 500 g/ha, 3 weeks, glass house 25° C.
Procedure, shortened: as §5

wheat [4] = test: Soil treatment test for upland field; assay type: in vivo; parameters: key: 0 = normal development, 5 = all killed; conditions: 500 g/ha, 3 weeks, glass house 25° C.
Procedure, shortened: as §5

Large crabgrass [5] = test: Soil treatment test for upland field; assay type: in vivo, Digitaria adscendens; parameters: key: 0 = normal development, 5 = all killed; conditions: 500 g/ha, 3 weeks, glass house 25° C.
Procedure, shortened: as §5

barnyard grass [6] = test: Soil treatment test for upland field; assay type: in vivo, Eschinochloa crusgalli; parameters: key: 0 = normal development, 5 = all killed; conditions: 500 g/ha, 3 weeks, glass house 25° C.
Procedure, shortened: as §5

green foxtail [7] = test: Soil treatment test for upland field; assay type: in vivo, Setaria viridis; parameters: key: 0 = normal development, 5 = all killed; conditions: 500 g/ha, 3 weeks, glass house 25° C.
Procedure, shortened: as §5

annual bluegrass [8] = test: Soil treatment test for upland field; assay type: in vivo, Poa annua; parameters: key: 0 = normal development, 5 = all killed; conditions: 500 g/ha, 3 weeks, glass house 25° C.
Procedure, shortened: as §5

common lambsquarters [9] = test: Soil treatment test for upland field; assay type: in vivo, Chenopodium album; parameters: key: 0 = normal development, 5 = all killed; conditions: 500 g/ha, 3 weeks, glass house 25° C.
Procedure, shortened: as §5

livid amaranth [10] = test: Soil treatment test for upland field; assay type: in vivo, Amaranthus lividus; parameters: key: 0 = normal development, 5 = all killed; conditions: 500 g/ha, 3 weeks, glass house 25° C.
Procedure, shortened: as §5

wheat [11] = test: Foliar spread test for upland field; assay type: in vivo; parameters: key: 0 = normal development, 5 = all killed (6 ranks vs. untreated); conditions: foliar spray, 500 ppm, 3 weeks, glass house 25° C.
Procedure, shortened: (§6)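 Plants grown about 2 weeks at 25 °C in volcanic ash soil were sprayed with wettable powder diluted to 500 ppm in water with 0.5% surfactant. After 3 weeks at 25 °C, damage was scored 0 (normal) to 5 (all killed) against untreated plants.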

Large crabgrass [12] = test: Foliar spread test for upland field; assay type: in vivo, Digitaria adscendens; parameters: key: 0 = normal development, 5 = all killed (6 ranks vs. untreated); conditions: foliar spray, 500 ppm, 3 weeks, glass house 25° C.
Procedure, shortened: as §6

green foxtail [13] = test: Foliar spread test for upland field; assay type: in vivo, Setaria viridis; parameters: key: 0 = normal development, 5 = all killed (6 ranks vs. untreated); conditions: foliar spray, 500 ppm, 3 weeks, glass house 25° C.
Procedure, shortened: as §6

common lambsquarters [14] = test: Foliar spread test for upland field; assay type: in vivo, Chenopodium album; parameters: key: 0 = normal development, 5 = all killed (6 ranks vs. untreated); conditions: foliar spray, 500 ppm, 3 weeks, glass house 25° C.
Procedure, shortened: as §6

livid amaranth [15] = test: Foliar spread test for upland field; assay type: in vivo, Amaranthus lividus; parameters: key: 0 = normal development, 5 = all killed (6 ranks vs. untreated); conditions: foliar spray, 500 ppm, 3 weeks, glass house 25° C.
Procedure, shortened: as §6

bulrush = test: Herbicidal test for paddy field; assay type: in vivo, Scrips juncoides; conditions: 500 g/ha, dropwise addition to paddy water at 1.5 leaf stage of barnyard grass; glass house 25° C., 3 weeks; rank 0-5 vs non-treated district
Experimental: as §1, §2, §3, §4

Cyperus serotinus Rottb. = test: Herbicidal test for paddy field; assay type: in vivo; conditions: 500 g/ha, dropwise addition to paddy water at 1.5 leaf stage of barnyard grass; glass house 25° C., 3 weeks; rank 0-5 vs non-treated district
Experimental: as §1, §2, §3, §4

arrowhead = test: Herbicidal test for paddy field; assay type: in vivo, Sagittaria pygmaea; conditions: 500 g/ha, dropwise addition to paddy water at 1.5 leaf stage of barnyard grass; glass house 25° C., 3 weeks; rank 0-5 vs non-treated district
Experimental: as §1, §2, §3, §4

solgum [16] = test: Soil treatment test for upland field; assay type: in vivo; parameters: key: 0 = normal development, 5 = all killed; conditions: 500 g/ha, 3 weeks, glass house 25° C.
Procedure, shortened: as §5

sugar beat [17] = test: Soil treatment test for upland field; assay type: in vivo; parameters: key: 0 = normal development, 5 = all killed; conditions: 500 g/ha, 3 weeks, glass house 25° C.
Procedure, shortened: as §5

[18] = tested on: common Cocklebur (Xanthium strumarium); test: Soil treatment test for upland field; assay type: in vivo; conditions: 500 g/ha, 3 weeks, glass house 25° C.
Experimental: as §4
Wagner pots, each having an area of 1/5000 are, were packed with Ube soil (alluvial soil), and then each seed of corn, soybean, cotton, wheat, solgum, sugar beat, Large crabgrass, barnyard grass, green foxtail, blackgrass, annual bluegrass, common lambsquarters, livid amaranth, velvetleaf, morning glory, common Cocklebur (Xanthium strumarium) and sicklepod (Cassia obtusifolia) were planted and covered with soil.
Each wettable powder of the desired compounds (I) shown in Tables 1 to 21, 24, 25, 28 and 29 prepared in accordance with Example 2 was diluted with water containing a surfactant (0.05%) and uniformly sprayed on the surface of each soil so that an effective concentration of the compound (I) in each herbicide became 500 g/ha.
as §3
(§7) The herbicidal effects were evaluated according to the evaluation method described in the above (1).

blackgrass [19] = test: Soil treatment test for upland field; assay type: in vivo, Alopecurus aegualis; parameters: key: 0 = normal development, 5 = all killed; conditions: 500 g/ha, 3 weeks, glass house 25° C.
Procedure, shortened: as §5

velvetleaf [20] = test: Soil treatment test for upland field; assay type: in vivo, Abutilon theophrasti; parameters: key: 0 = normal development, 5 = all killed; conditions: 500 g/ha, 3 weeks, glass house 25° C.
Procedure, shortened: as §5

morning glory [21] = test: Soil treatment test for upland field; assay type: in vivo, Ipomoea spps.; parameters: key: 0 = normal development, 5 = all killed; conditions: 500 g/ha, 3 weeks, glass house 25° C.
Procedure, shortened: as §5

corn [22] = test: Foliar spread test for upland field; assay type: in vivo; parameters: key: 0 = normal development, 5 = all killed (6 ranks vs. untreated); conditions: foliar spray, 500 ppm, 3 weeks, glass house 25° C.
Procedure, shortened: as §6

cotton = test: Foliar spread test for upland field; assay type: in vivo; parameters: key: 0 = normal development, 5 = all killed (6 ranks vs. untreated); conditions: foliar spray, 500 ppm, 3 weeks, glass house 25° C.
Procedure, shortened: as §6

solgum [23] = test: Foliar spread test for upland field; assay type: in vivo; parameters: key: 0 = normal development, 5 = all killed (6 ranks vs. untreated); conditions: foliar spray, 500 ppm, 3 weeks, glass house 25° C.
Procedure, shortened: as §6

soybean [24] = test: Foliar spread test for upland field; assay type: in vivo; parameters: key: 0 = normal development, 5 = all killed (6 ranks vs. untreated); conditions: foliar spray, 500 ppm, 3 weeks, glass house 25° C.
Procedure, shortened: as §6

sugar beat [25] = test: Foliar spread test for upland field; assay type: in vivo; parameters: key: 0 = normal development, 5 = all killed (6 ranks vs. untreated); conditions: foliar spray, 500 ppm, 3 weeks, glass house 25° C.
Procedure, shortened: as §6

barnyardgrjass = test: Foliar spread test for upland field; assay type: in vivo, Eschinochloa crusgalli; parameters: key: 0 = normal development, 5 = all killed (6 ranks vs. untreated); conditions: foliar spray, 500 ppm, 3 weeks, glass house 25° C.
Procedure, shortened: as §6

blackgrass [26] = test: Foliar spread test for upland field; assay type: in vivo, Alopecurus aegualis; parameters: key: 0 = normal development, 5 = all killed (6 ranks vs. untreated); conditions: foliar spray, 500 ppm, 3 weeks, glass house 25° C.
Procedure, shortened: as §6

annual bluegrass [27] = test: Foliar spread test for upland field; assay type: in vivo, Poa annua; parameters: key: 0 = normal development, 5 = all killed (6 ranks vs. untreated); conditions: foliar spray, 500 ppm, 3 weeks, glass house 25° C.
Procedure, shortened: as §6

velvetleaf [28] = test: Foliar spread test for upland field; assay type: in vivo, Abutilon theophrasti; parameters: key: 0 = normal development, 5 = all killed (6 ranks vs. untreated); conditions: foliar spray, 500 ppm, 3 weeks, glass house 25° C.
Procedure, shortened: as §6

morning glory [29] = test: Foliar spread test for upland field; assay type: in vivo, Ipomoea spps.; parameters: key: 0 = normal development, 5 = all killed (6 ranks vs. untreated); conditions: foliar spray, 500 ppm, 3 weeks, glass house 25° C.
Procedure, shortened: as §6

Cassia obtusifolia = test: Foliar spread test for upland field; assay type: in vivo; parameters: key: 0 = normal development, 5 = all killed; conditions: foliar spray, 500 ppm, 3 weeks, glass house 25° C.
Experimental: as §4
(§8) Wagner pots, each having an area of 1/5000 are, were packed with volcanic ash soil and then each seed of corn, soybean, cotton, wheat, solgum, sugar beat, Large crabgrass, barnyardgrjass, green foxtail, blackgrass, annual bluegrass, common lambsquarters, livid amaranth, velvetleaf, morning glory, Xanthium pensylvanicum and Cassia obtusifolia was planted, covered with soil and grown in a glass house at an average temperature of 25° C. for about 2 weeks.
(§9) Each wettable powder of the desired compounds (I) shown in Tables 1 to 21, 24, 25, 28 and 29 prepared in accordance with Example 2 was diluted to 500 ppm with water containing a surfactant (0.5%) and then uniformly sprayed on the above respective plants.
(§10) After these plants were controlled in a glass house at an average temperature of 25° C. for 3 weeks, the herbicidal effects thereof were investigated.
as §7

Xanthium pensylvanicum = test: Foliar spread test for upland field; assay type: in vivo; parameters: key: 0 = normal development, 5 = all killed; conditions: foliar spray, 500 ppm, 3 weeks, glass house 25° C.
Experimental: as §4, §8, §9, §10, §7

Compound: CCC(Oc1cc(C(F)(F)F)nn1C)c1nc2cc(C#N)c(F)cc2o1 (stereo not drawn) [Compound 1-e-10]
- Effects Barnyardgrass (barnyard grass [1]): 5
- Effects Monochoria (monochoria): 4
- Effects Corn (corn [2]): 1
- Effects Soybean (soybean [3]): 2
- Effects Wheat (wheat [4]): 0
- Effects Large crabgrass (Large crabgrass [5]): 5
- Effects Barnyardgrass (barnyard grass [6]): 4
- Effects Green foxtail (green foxtail [7]): 5
- Effects Annual bluegrass (annual bluegrass [8]): 5
- Effects Common lambsquarters (common lambsquarters [9]): 5
- Effects Livid amaranth (livid amaranth [10]): 5
- Effects Wheat (wheat [11]): 1
- Effects Large crabgrass (Large crabgrass [12]): 5
- Effects Green foxtail (green foxtail [13]): 5
- Effects Common lambsquarters (common lambsquarters [14]): 5
- Effects Livid amaranth (livid amaranth [15]): 5

Compound: CCC(Oc1cc(C)nc(SC)n1)c1nc2cc(Cl)ccc2o1 (stereo not drawn) [Compound 1-e-64]
- Effects Monochoria (monochoria): 4

Compound: CCC(Oc1cc(C(F)(F)F)ncn1)c1nc2cc(Cl)ccc2o1 (stereo not drawn) [Compound 1-e-66]
- Effects Barnyardgrass (barnyard grass [1]): 2
- Effects Monochoria (monochoria): 5

Compound: FC(F)(F)c1cccc(Oc2cccc(-c3nc4cc(C(F)(F)F)ccc4o3)n2)c1 [I-a-13]
- Effects Barnyardgrass (barnyard grass [1]): 2
- Effects Bulrush (bulrush): 0
- Effects Cyperus serotinus Rottb. (Cyperus serotinus Rottb.): 0
- Effects Arrowhead (arrowhead): 1
- Effects Corn (corn [2]): 1
- Effects Solgum (solgum [16]): 0
- Effects Sugar beat (sugar beat [17]): 5
- Effects Wheat (wheat [4]): 1
- Effects Common Cocklebur [18]: 3
- Effects Large crabgrass (Large crabgrass [5]): 5
- Effects Barnyardgrass (barnyard grass [6]): 4
- Effects Green foxtail (green foxtail [7]): 5
- Effects Blackgrass (blackgrass [19]): 4
- Effects Annual bluegrass (annual bluegrass [8]): 5
- Effects Common lambsquarters (common lambsquarters [9]): 5
- Effects Livid amaranth (livid amaranth [10]): 5
- Effects Velvetleaf (velvetleaf [20]): 5
- Effects Morning glory (morning glory [21]): 4
- Effects Corn (corn [22]): 2
- Effects Sotton (cotton): 5
- Effects Solgum (solgum [23]): 2
- Effects Soybean (soybean [24]): 3
- Effects Sugar beat (sugar beat [25]): 4
- Effects Wheat (wheat [11]): 2
- Effects Large crabgrass (Large crabgrass [12]): 3
- Effects Barnyardgrass (barnyardgrjass): 2
- Effects Green foxtail (green foxtail [13]): 5
- Effects Blackgrass (blackgrass [26]): 3
- Effects Annual bluegrass (annual bluegrass [27]): 4
- Effects Common lambsquarters (common lambsquarters [14]): 5
- Effects Livid amaranth (livid amaranth [15]): 5
- Effects Velvetleaf (velvetleaf [28]): 4
- Effects Morning glory (morning glory [29]): 5
- Effects Sicklepod (Cassia obtusifolia): 5
- Effects Common Cocklebur (Xanthium pensylvanicum): 4

— patent US7402548B2, “Benzoxazole compounds, process for producing the same and herbicides” (Kyoyu Agri Co., Ltd., priority 2000, dated 2008)
